Target: T1, Receptor-type tyrosine-protein kinase FLT3 (Homo sapiens, UniProt P36888)
T1 sequence (P36888 whole entry): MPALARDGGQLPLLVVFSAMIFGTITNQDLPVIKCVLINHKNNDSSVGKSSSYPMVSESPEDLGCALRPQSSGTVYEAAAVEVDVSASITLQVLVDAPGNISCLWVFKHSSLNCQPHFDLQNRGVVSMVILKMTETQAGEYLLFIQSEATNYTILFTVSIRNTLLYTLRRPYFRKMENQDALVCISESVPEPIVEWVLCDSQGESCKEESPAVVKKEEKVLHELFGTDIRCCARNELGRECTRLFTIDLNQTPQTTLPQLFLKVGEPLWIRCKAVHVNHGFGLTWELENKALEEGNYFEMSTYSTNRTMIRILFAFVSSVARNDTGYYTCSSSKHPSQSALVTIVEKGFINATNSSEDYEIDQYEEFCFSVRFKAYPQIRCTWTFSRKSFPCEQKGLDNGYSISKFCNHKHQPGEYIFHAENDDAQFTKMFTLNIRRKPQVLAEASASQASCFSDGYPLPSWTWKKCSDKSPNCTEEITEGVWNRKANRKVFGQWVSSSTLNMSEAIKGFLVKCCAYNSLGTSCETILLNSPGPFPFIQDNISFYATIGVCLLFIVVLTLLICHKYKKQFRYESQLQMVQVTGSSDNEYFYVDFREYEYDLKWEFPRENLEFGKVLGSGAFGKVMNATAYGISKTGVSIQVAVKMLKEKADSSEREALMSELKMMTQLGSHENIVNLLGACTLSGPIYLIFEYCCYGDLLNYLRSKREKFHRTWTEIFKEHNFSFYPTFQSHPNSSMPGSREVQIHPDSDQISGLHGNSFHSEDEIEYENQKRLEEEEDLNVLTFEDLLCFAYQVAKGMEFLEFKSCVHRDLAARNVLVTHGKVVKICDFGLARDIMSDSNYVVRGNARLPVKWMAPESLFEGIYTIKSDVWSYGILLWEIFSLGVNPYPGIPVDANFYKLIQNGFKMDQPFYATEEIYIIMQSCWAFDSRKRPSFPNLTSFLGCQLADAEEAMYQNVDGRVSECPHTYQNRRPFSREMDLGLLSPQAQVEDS
Experiment: In Vitro Kinase Assay: The inhibition of the FLT3 kinase activity was measured with homogeneous, time-resolved fluorescence (HTRF) assays. Recombinant proteins containing the FLT3 kinase domain were purchased from Invitrogen (Carlsbad, Calif., USA). Optimal enzyme, ATP, and substrate concentrations were established with the HTRF KinEASE kit (Cisbio, France) according to the manufacturer's instructions. The FLT3 enzymes were mixed with serially diluted compounds and peptide substrates in a kinase reaction buffer (50 mM HEPES (pH 7.0), 500 μM ATP, 0.1 mM sodium orthovanadate, 5 mM MgCl2, 1 mM DTT, 0.01% bovine serum albumin (BSA), and 0.02% NaN3). Ten microliters of the total volume of the kinase reaction were added to the wells of a 96-well assay plate. The kinase reactions were incubated for 30 min at 25° C. For the detection of the phospho-substrate, the Eu3b-Cryptate-conjugated mouse monoclonal antibody (PT66) and the streptavidin-XL665 (SA-XL) were added, and the reactions were then incubated for 1 hour at 25° C. The signal was measured on an Victor X5 multi-label reader (PerkinElmer, Waltham, Mass., USA).

| Structure (SMILES) | IC50 [nM] |
| --- | --- |
| O=C1Nc2ccc(F)cc2/C1=C1/Nc2ccccc2/C1=N\OCCN1CCNCC1 | 0.9 |
| CN1CCN(CCO/N=C2/C(=C3/C(=O)Nc4ccccc43)Nc3ccccc32)CC1 | 7.42 |
| CN1CCN(CCO/N=C2/C(=C3/C(=O)Nc4ccc(F)cc43)Nc3ccccc32)CC1 | 3.2 |
| O=C1Nc2ccccc2/C1=C1/Nc2ccccc2/C1=N\OCCN1CCCC1 | 51.9 |
| O=C1Nc2ccc([N+](=O)[O-])cc2/C1=C1/Nc2ccc(F)cc2/C1=N\OCCN1CCNCC1 | 35.5 |
| O=C1Nc2ccccc2/C1=C1/Nc2ccccc2/C1=N\OCCN1CCCCC1 | 251 |
| CN1CCN(CCO/N=C2/C(=C3/C(=O)Nc4ccc([N+](=O)[O-])cc43)Nc3ccc(F)cc32)CC1 | 35.5 |
| CN1CCN(CCO/N=C2/C(=C3/C(=O)Nc4ccc(F)cc43)Nc3ccc(F)cc32)CC1 | 40.4 |
| O=C1Nc2ccc(F)cc2/C1=C1/Nc2ccc(F)cc2/C1=N\OCCN1CCNCC1 | 26.2 |
| O=C1Nc2ccc(I)cc2/C1=C1/Nc2ccccc2/C1=N\OCCN1CCNCC1 | 1.8 |
| CN1CCN(CCO/N=C2/C(=C3/C(=O)Nc4ccc(Cl)cc43)Nc3ccccc32)CC1 | 2.4 |
| NC1CCN(CCO/N=C2/C(=C3/C(=O)Nc4ccc(F)cc43)Nc3ccc(F)cc32)CC1 | 81.5 |
| COC(=O)c1ccc2c(c1)/C(=C1/Nc3ccccc3/C1=N\OCCN1CCOCC1)C(=O)N2 | 253 |
| CN1CCN(CCO/N=C2/C(=C3/C(=O)Nc4ccc(I)cc43)Nc3ccccc32)CC1 | 5.8 |
| O=C1Nc2ccc(Cl)cc2/C1=C1/Nc2ccccc2/C1=N\OCCN1CCNCC1 | 1.3 |
| O=C1Nc2ccc([N+](=O)[O-])cc2/C1=C1/Nc2ccc(F)cc2/C1=N\OCCN1CCCC1 | 112 |
| O=C1Nc2ccc([N+](=O)[O-])cc2/C1=C1/Nc2ccc(F)cc2/C1=N\OCCN1CCCCC1 | 453 |
| O=C1Nc2ccc(Br)cc2/C1=C1/Nc2ccccc2/C1=N\OCCN1CCNCC1 | 1 |

Reference: ChEMBL document CHEMBL5729175, “Pharmaceutical composition for preventing or treating acute myeloid leukemia or metastatic breast cancer” (2022)
